# Like-named read-outs stand apart in the source and are kept apart here.
# Columns and labels:
# [1] = system: cell extract of Hansenula polymorpha ATCC 26,012; assay: Oxidation of secondary alcohols to methylketone by cell extracts of yeasts; format: biochemical; conditions: methanol-grown; cell extract + NAD^+; sec. alcohol to methyl ketone; gas chromatography
# [2] = system: Hansenula polymorpha ATCC 26012; assay: Oxidation of sec-alcohols to ketones by cell suspensions of yeasts; format: cell-based; conditions: sec-alcohol to methyl ketone
# Pichia sp. NRRL-Y-11328 = assay: as above; format: cell-based; conditions: sec-alcohol to methyl ketone
# [3] = system: cell extract of Kloeckera sp. strain A2 NRRL-Y-11,420; assay: Oxidation of secondary alcohols to methylketone by cell extracts of yeasts; format: biochemical; conditions: methanol-grown; cell extract + NAD^+; sec. alcohol to methyl ketone; gas chromatography
# [4] = system: cell extract of Torulopsis sp. strain A1 NRRL-Y-11,419; assay: as above; format: biochemical; conditions: methanol-grown; cell extract + NAD^+; sec. alcohol to methyl ketone; gas chromatography
# [5] = system: Methylobacter chroococcum CRL M6 NRRL B-11,214; assay: Sec. alcohol oxidation by cell suspensions of methanol-grown cells; format: cell-based; conditions: sec. alcohol to methyl ketone
# Source text: (§1) In this example, the procedure of Example 1 was repeated except that a plurality of the methane-utilizing methylotrophic microorganisms of the invention were each aerobically grown in a methanol-containing nutrient medium instead of a methane-containing medium. The nutrients in the medium were the same as indicated in Example 1 except that 0.4% v/v methanol was used as the alcohol dehydrogenase enzyme inducer and major source of carbon and energy for growth. Following growth the cells were harvested and washed as described in Example 1. The resting cells of the induced methanol-grown methylotrophic microorganisms were then contacted with a […] under aerobic conditions in a buffered solution by the procedure described in Example 1.
# [6] = system: Methylocystis parvus CRL 18 NRRL B-11,204; assay: as above; format: cell-based; conditions: sec. alcohol to methyl ketone
# Source text: as §1
# [7] = system: Methylobacterium organophilum CRL 26 NRRL B-11,222; assay: as above; format: cell-based; conditions: sec. alcohol to methyl ketone
# Source text: as §1
# [8] = system: Methylococcus capsulatus CRL M1 NRRL B-11,219; assay: as above; format: cell-based; conditions: sec. alcohol to methyl ketone
# Source text: as §1
# [9] = system: Methylosinus trichosporium CRL 15 NRRL B-11,202; assay: as above; format: cell-based; conditions: sec. alcohol to methyl ketone
# Source text: as §1
# [10] = system: Methylomonas methanica CRL M4P NRRL B-11,205; assay: as above; format: cell-based; conditions: sec. alcohol to methyl ketone
# Source text: as §1
# [11] = system: Methylobacter vinelandii CRL M5Y NRRL B-11,218; assay: as above; format: cell-based; conditions: sec. alcohol to methyl ketone
# Source text: as §1
# [12] = system: purified secondary alcohol dehydrogenase from Pichia sp. NRRL Y-11,328; assay: Substrate specificity, electron acceptor and stoichiometry of purified yeast SADH; format: biochemical; conditions: examined spectrophotometrically
# [13] = system: Torulopsis sp. Strain A1 (NRRLY-11,419); assay: Oxidation of sec-alcohols to ketones by cell suspensions of yeasts; format: cell-based; conditions: sec-alcohol to methyl ketone
# [14] = system: cell extract of Candida utilis ATCC 26,387; assay: Oxidation of secondary alcohols to methylketone by cell extracts of yeasts; format: biochemical; conditions: methanol-grown; cell extract + NAD^+; sec. alcohol to methyl ketone; gas chromatography
# [15] = system: cell extract of Pichia sp. NRRL-Y-11,328; assay: as above; format: biochemical; conditions: methanol-grown; cell extract + NAD^+; sec. alcohol to methyl ketone; gas chromatography
# [16] = system: Candida utilis ATCC 26387; assay: Oxidation of sec-alcohols to ketones by cell suspensions of yeasts; format: cell-based; conditions: sec-alcohol to methyl ketone
# [17] = system: Kloeckera sp. Strain A2 (NRRLY-11,420); assay: as above; format: cell-based; conditions: sec-alcohol to methyl ketone
# [18] = system: Methylomonas rosaceus (CRL M10P) NRRL B-11,212; format: cell-based
# Method: (§2) The pH of the nutrient medium was adjusted to 7.0 by the addition of acid or base and 50 ml samples of the nutrient medium were charged into a plurality of 300 ml shaker flasks. The shaker flasks were inoculated with an inoculating loop of cells from an agar plate containing homogeneous colonies of the microorganisms on the plate (the purity of the isolates was confirmed by microscopic examination. The isolates had been maintained on agar plates under an atmosphere of methane and air having a 1:1 v/v gas ratio which had been transferred evey two weeks. The gaseous phase of the inoculated flasks was then replaced with a gas mixture comprised of methane and air having a ratio of 1:1 on a v/v basis. The inoculated flasks were sealed air tight and were incubated on a rotary shaker of orbital radius 2.5 cm at 250 rpm and at 30° C. for two days until turbidity in the medium had developed.
# (§3) The cells were harvested by centrifugation at 10,000×g. at 4° C. for 30 minutes. The cell pellet was washed twice with a 0.15 M phosphate buffer at a pH of 7.0 (containing 0.002 M MgCl2). The washed cells were then suspended in a 0.15 M phosphate buffer at pH 7.0.
# (§4) A 0.5 ml sample of each washed cell suspension (2 mg cells) was put into 10 ml vials at 4° C. which were sealed with a rubber cap. The gaseous phase of the vials was removed with vacuum and then was replaced with a gas mixture of the oxidative substrate (e.g., methane) and oxygen at a 1:1 v/v ratio. The vials were then incubated at 30 ° C. on a rotary shaker at 300 rpm. Samples of product (3 μl) were withdrawn periodically with a microsyringe and the products were analyzed by gas chromatography (ionization flame detector column).
# (§5) The newly discovered and isolated microorganism strains of the present invention were each grown aerobically in the presence of methane in the manner described above. The methane-grown microbial cells were then washed, recovered and put to use in oxidizing an oxidative substrate by the procedure described above except in the case of a liquid substrate 10 μl of the substrate were used.
# [19] = system: Methylobacter vinelandii (CRL M5Y) NRRL B-11,218; assay: Oxidation by washed cell suspensions of methane-grown cells; format: cell-based; conditions: for Conversion Rate: methane-grown cells, n-pentane to 2-pentanone, n-hexane to 2-hexanone
# Method: as §2, §3, §4, §5
# [20] = system: Methylococcus capsulatus (CRL 25 PM13) NRRL B-11,221; assay: as above; format: cell-based
# Method: as §2, §3, §4, §5
# [21] = system: Methylomonas agile (CRL 22 PM9) NRRL B-11,209; assay: as above; format: cell-based
# Method: as §2, §3, §4, §5
# [22] = system: Methylococcus minimus (CRL 24 PM12) NRRL B-11,220; assay: as above; format: cell-based
# Method: as §2, §3, §4, §5
# [23] = system: Methylomonas methanica (CRL M4P) NRRL B-11,205; assay: as above; format: cell-based
# Method: as §2, §3, §4, §5
# [24] = system: Methylococcus capsulatus (CRL M1) NRRL B-11,219; assay: as above; format: cell-based
# Method: as §2, §3, §4, §5
# [25] = system: Methylomonas streptobacterium (CRL 17 PM3) NRRL B-11,208; assay: as above; format: cell-based
# Method: as §2, §3, §4, §5
# [26] = system: Methylobacterium organophilum (CRL 26 R6) NRRL B-11,222; assay: as above; format: cell-based
# Method: as §2, §3, §4, §5
# [27] = system: Methylosinus trichosporium (CRL 15 PM1) NRRL B-11,202; assay: as above; format: cell-based
# Method: as §2, §3, §4, §5
# [28] = system: Methylosinus sporium (CRL 16 PM2) NRRL B-11,203; assay: as above; format: cell-based
# Method: as §2, §3, §4, §5
# [29] = system: Methylobacter chroococcum (CRL M6) NRRL B-11,214; assay: as above; format: cell-based
# Method: as §2, §3, §4, §5
# [30] = system: Methylobacter bovis (CRL 19 PM5) NRRL B-11,217; assay: as above; format: cell-based
# Method: as §2, §3, §4, §5
# [31] = system: Methylobacter chroococcum (CRL 23 PM8) NRRL B-11,215; assay: as above; format: cell-based
# Method: as §2, §3, §4, §5
# [32] = system: Methylomonas albus (CRL M8Y) NRRL B-11,207; assay: as above; format: cell-based
# Method: as §2, §3, §4, §5
# [33] = system: Methylobacter bovis (CRL M1Y) NRRL B-11,216; assay: as above; format: cell-based
# Method: as §2, with “The inoculated flasks were sealed air tight and were incubated on a rotary shaker of orbital radius 2.5 cm at 250 rpm and at 30° C. for two days until turbidity in the medium had developed.” left out
# as §3, §4, §5
# [34] = system: Methylomonas methanica (CRL 21 PM7) NRRL B-11,206; assay: as above; format: cell-based; conditions: methane-grown cells; n-pentane to 2-pentanone, n-hexane to 2-hexanone
# Method: as §2, §3, §4, §5
# [35] = system: Methylococcus capsulatus (Texas, ATCC 19,069); assay: Oxidation by cell suspensions of methane-grown cells; format: cell-based; conditions: growth substrate Methane; n-alkane to secondary alcohol
# Method: as §2, §3, §4
# (§6) The conditions for preparing the cell suspensions or the cell-free particulate fractions from methane-grown methylotroph microorganisms is the same as described above.
# [36] = system: Methylosinus trichosporium OB3b (NRRL B-11,196); assay: as above; format: cell-based; conditions: growth substrate Methane; n-alkane to secondary alcohol
# Method: as §2, §3, §4, §6
# [37] = methane-grown cells, n-pentane to 2-pentanone, n-hexane to 2-hexanone
smiles,measurement,setting,value
CCCCC(C)O (centres unmarked) [2-Hexanol],Conversion Rate,[1],0.51 μmoles/hr/mg Protein
same,Conversion Rate,[2]; growth substrate Ethanol,0.54 μmoles/hr/mg of protein
same,Conversion Rate,[2]; growth substrate Methanol,0.72 μmoles/hr/mg of protein
same,Conversion Rate,[2]; growth substrate Methylamine,0.62 μmoles/hr/mg of protein
same,Conversion Rate,[2]; growth substrate Methylformate,0.70 μmoles/hr/mg of protein
same,Conversion Rate,[2]; growth substrate Propylamine,0.48 μmoles/hr/mg of protein
same,Conversion Rate,Pichia sp. NRRL-Y-11328; growth substrate Ethanol,0.28 μmoles/hr/mg of protein
same,Conversion Rate,Pichia sp. NRRL-Y-11328; growth substrate Methanol,0.50 μmoles/hr/mg of protein
same,Conversion Rate,Pichia sp. NRRL-Y-11328; growth substrate Methylamine,0.31 μmoles/hr/mg of protein
same,Conversion Rate,Pichia sp. NRRL-Y-11328; growth substrate Methylformate,0.48 μmoles/hr/mg of protein
same,Conversion Rate,Pichia sp. NRRL-Y-11328; growth substrate Propylamine,0.21 μmoles/hr/mg of protein
same,Conversion Rate,[3],0.25 μmoles/hr/mg Protein
same,Conversion Rate,[4],0.21 μmoles/hr/mg Protein
same,Conversion Rates,[5],0.02 μmoles/hr/mg protein
same,Conversion Rates,[6],0.05 μmoles/hr/mg protein
same,Conversion Rates,[7],0.09 μmoles/hr/mg protein
same,Conversion Rates,[8],0.08 μmoles/hr/mg protein
same,Conversion Rates,[9],0.06 μmoles/hr/mg protein
same,Conversion Rates,[10],0.03 μmoles/hr/mg protein
same,Conversion Rates,[11],0.02 μmoles/hr/mg protein
same,oxidation by the purified enzyme,[12],catalyzed the oxidation
same,Conversion Rate,[13]; growth substrate Ethanol,0.20 μmoles/hr/mg of protein
same,Conversion Rate,[13]; growth substrate Methanol,0.21 μmoles/hr/mg of protein
same,Conversion Rate,[13]; growth substrate Methylamine,0.12 μmoles/hr/mg of protein
same,Conversion Rate,[13]; growth substrate Methylformate,0.25 μmoles/hr/mg of protein
same,Conversion Rate,[13]; growth substrate Propylamine,0.10 μmoles/hr/mg of protein
same,Conversion Rate,[14],0.45 μmoles/hr/mg Protein
same,Conversion Rate,[15],0.60 μmoles/hr/mg Protein
same,Conversion Rate,[16]; growth substrate Ethanol,0.72 μmoles/hr/mg of protein
same,Conversion Rate,[16]; growth substrate Methanol,0.8 μmoles/hr/mg of protein
same,Conversion Rate,[16]; growth substrate Methylamine,0.61 μmoles/hr/mg of protein
same,Conversion Rate,[16]; growth substrate Methylformate,0.75 μmoles/hr/mg of protein
same,Conversion Rate,[16]; growth substrate Propylamine,0.52 μmoles/hr/mg of protein
same,Conversion Rate,[17]; growth substrate Ethanol,0.12 μmoles/hr/mg of protein
same,Conversion Rate,[17]; growth substrate Methanol,0.25 μmoles/hr/mg of protein
same,Conversion Rate,[17]; growth substrate Methylamine,0.10 μmoles/hr/mg of protein
same,Conversion Rate,[17]; growth substrate Methylformate,0.28 μmoles/hr/mg of protein
same,Conversion Rate,[17]; growth substrate Propylamine,0.11 μmoles/hr/mg of protein
C=CCC [Butene-1],Oxidative Conversion Rates,[18],3.1
same,Oxidative Conversion Rates,"[19]; methane-grown washed cells, 30° C., methane to methanol, alkene to 1,2-epoxide",0 μmole/hr/mg protein
same,Oxidative Conversion Rates,[20],1.9
same,Oxidative Conversion Rates,[21],0.5
same,Oxidative Conversion Rates,[22],1.5
same,Oxidative Conversion Rates,[23],2.8
same,Oxidative Conversion Rates,[24],1.3
same,Oxidative Conversion Rates,[25],2.5
same,Oxidative Conversion Rates,[26],0.9
same,Oxidative Conversion Rates,[27],1.8
same,Oxidative Conversion Rates,[28],1.2
same,Oxidative Conversion Rates,[29],0.7
same,Oxidative Conversion Rates,[30],1.3
same,Oxidative Conversion Rates,[31],0.82
same,Oxidative Conversion Rates,[32],1.8
same,Oxidative Conversion Rates,[33],1.1
CCCCCC [n-Hexane],Conversion Rate,[19],0.01 μmole/hr/mg protein
same,Conversion Rate,[24],0.08
same,Conversion Rate,[27],0.04
same,Conversion Rate,[34],0.01 μmole/hr/mg protein
same,Conversion Rate,[35],0.01 μmoles/hr/^5 mg. protein
same,Conversion Rate,[36],0.01 μmoles/hr/^5 mg. protein
CCCCC [n-Pentane],Conversion Rate,[19],0.04 μmole/hr/mg protein
same,Conversion Rate,[24]; [37],0.15 μmole/hr/mg protein
same,Conversion Rate,"[26]; growth substrate Methane, n-alkane to secondary alcohol",0.01 μmoles/hr/^5 mg. protein
same,Conversion Rate,[26]; [37],0.18 μmole/hr/mg protein
same,Conversion Rate,[27]; [37],0.08 μmole/hr/mg protein
same,Conversion Rate,[34],0.06 μmole/hr/mg protein
same,Conversion Rate,[35],0.032 μmoles/hr/^5 mg. protein
same,Conversion Rate,[36],0.06 μmoles/hr/^5 mg. protein

# Reference: patent publication US4347319A, “Microbiological epoxidation process” (priority 1980, dated 1982)
